Measured values as given in the NIST ThermoML archive (doi:10.1021/je9001416).

Columns and labels:
[1] = refractive index (Na D-line) (dimensionless); xn = mol fraction of the nth substance listed; settings: 303.15 K, 101 kPa, Liquid, Standard Abbe refractometry
[2] = xn = mol fraction of the nth substance listed; settings: 303.15 K, 101 kPa, Liquid
[3] = excess molar enthalpy (molar enthalpy of mixing); xn = mol fraction of the nth substance listed; settings: 303.15 K, 101 kPa, Liquid, Flow calorimetry

CC(C)CC(C)(C)C [2,2,4-trimethylpentane] + CC(C)OC(C)C
x2 = 0
Settings	mass density [kg/m3]	refractive index
[1]	–	1.3865
[2]	684.1	–

CC(C)CC(C)(C)C [2,2,4-trimethylpentane] + CCO
Settings	mass density, [2] [kg/m3]	refractive index, [1]
x2 = 0	684.1	1.3865
x2 = 0.0498	–	1.38633
x2 = 0.061	685.45	–
x2 = 0.0992	–	1.38632
x2 = 0.1201	687.2	–
x2 = 0.1997	–	1.38482
x2 = 0.2363	691.81	–
x2 = 0.2998	–	1.38404
x2 = 0.3467	697.27	–
x2 = 0.4005	–	1.38109
x2 = 0.453	703.74	–
x2 = 0.499	–	1.37746
x2 = 0.5525	711.14	–
x2 = 0.5999	–	1.37322
x2 = 0.6502	720.18	–
x2 = 0.7	–	1.36851
x2 = 0.7431	730.88	–
x2 = 0.8001	–	1.36386
x2 = 0.8322	744.05	–
x2 = 0.8999	–	1.36145
x2 = 0.9176	760.58	–
x2 = 0.9508	–	1.35789
x2 = 0.9599	770.78	–

CC(C)OC(C)C [diisopropyl ether] + CC(C)CC(C)(C)C
Settings	excess molar enthalpy [kcal/mol]	mass density [kg/m3]	refractive index
[1], x1 = 0.0614	–	–	1.38505
[1], x1 = 0.1204	–	–	1.38372
[1], x1 = 0.2365	–	–	1.38115
[1], x1 = 0.3486	–	–	1.37862
[1], x1 = 0.4525	–	–	1.37619
[1], x1 = 0.5542	–	–	1.37383
[1], x1 = 0.6497	–	–	1.37172
[1], x1 = 0.7437	–	–	1.36963
[1], x1 = 0.8322	–	–	1.36774
[1], x1 = 0.9187	–	–	1.36596
[1], x1 = 0.9598	–	–	1.36512
[1], x1 = 1	–	–	1.36425
[2], x1 = 0.0614	–	685.5	–
[2], x1 = 0.1204	–	686.92	–
[2], x1 = 0.2365	–	689.82	–
[2], x1 = 0.3486	–	692.78	–
[2], x1 = 0.4525	–	695.6	–
[2], x1 = 0.5542	–	698.54	–
[2], x1 = 0.6497	–	701.45	–
[2], x1 = 0.7437	–	704.5	–
[2], x1 = 0.8322	–	707.61	–
[2], x1 = 0.9187	–	710.76	–
[2], x1 = 0.9598	–	712.33	–
[2], x1 = 1	–	713.78	–
[3], x1 = 0.0577	0.00932	–	–
[3], x1 = 0.1144	0.0178	–	–
[3], x1 = 0.1702	0.0253	–	–
[3], x1 = 0.2252	0.0316	–	–
[3], x1 = 0.2793	0.0368	–	–
[3], x1 = 0.3326	0.041	–	–
[3], x1 = 0.385	0.0441	–	–
[3], x1 = 0.4367	0.0461	–	–
[3], x1 = 0.4875	0.0471	–	–
[3], x1 = 0.5376	0.0472	–	–
[3], x1 = 0.587	0.0462	–	–
[3], x1 = 0.6356	0.0443	–	–
[3], x1 = 0.6835	0.0415	–	–
[3], x1 = 0.7307	0.038	–	–
[3], x1 = 0.7772	0.0337	–	–
[3], x1 = 0.823	0.0284	–	–
[3], x1 = 0.8682	0.0223	–	–
[3], x1 = 0.9128	0.0156	–	–
[3], x1 = 0.9567	0.00795	–	–

CC(C)OC(C)C [diisopropyl ether] + CCO
Settings	excess molar enthalpy [kcal/mol]	mass density [kg/m3]	refractive index
[1], x1 = 0.0495	–	–	1.35854
[1], x1 = 0.0994	–	–	1.35989
[1], x1 = 0.2002	–	–	1.36147
[1], x1 = 0.2997	–	–	1.36232
[1], x1 = 0.4003	–	–	1.36325
[1], x1 = 0.5012	–	–	1.36309
[1], x1 = 0.6012	–	–	1.36285
[1], x1 = 0.7018	–	–	1.36225
[1], x1 = 0.804	–	–	1.36246
[1], x1 = 0.8996	–	–	1.36213
[1], x1 = 0.9505	–	–	1.36303
[1], x1 = 1	–	–	1.36425
[2], x1 = 0.0495	–	776.55	–
[2], x1 = 0.0994	–	771.45	–
[2], x1 = 0.2002	–	762.41	–
[2], x1 = 0.2997	–	754.04	–
[2], x1 = 0.4003	–	746.63	–
[2], x1 = 0.5012	–	740.01	–
[2], x1 = 0.6012	–	734.1	–
[2], x1 = 0.7018	–	728.75	–
[2], x1 = 0.804	–	723.6	–
[2], x1 = 0.8996	–	718.96	–
[2], x1 = 0.9505	–	716.37	–
[2], x1 = 1	–	713.78	–
[3], x1 = 0.0212	0.0024	–	–
[3], x1 = 0.0437	0.00524	–	–
[3], x1 = 0.0676	0.00902	–	–
[3], x1 = 0.0931	0.0136	–	–
[3], x1 = 0.1204	0.0189	–	–
[3], x1 = 0.1497	0.0251	–	–
[3], x1 = 0.1811	0.0321	–	–
[3], x1 = 0.215	0.0399	–	–
[3], x1 = 0.2516	0.0483	–	–
[3], x1 = 0.2912	0.0574	–	–
[3], x1 = 0.3343	0.0661	–	–
[3], x1 = 0.3813	0.0761	–	–
[3], x1 = 0.4328	0.086	–	–
[3], x1 = 0.4894	0.0958	–	–
[3], x1 = 0.5521	0.104	–	–
[3], x1 = 0.6217	0.11	–	–
[3], x1 = 0.6995	0.113	–	–
[3], x1 = 0.7871	0.105	–	–
[3], x1 = 0.8864	0.0783	–	–

CCO [ethanol] + CC(C)CC(C)(C)C
x1 = 1
Settings	mass density [kg/m3]	refractive index
[1]	–	1.35733
[2]	781.99	–

CCO [ethanol] + CC(C)OC(C)C
x2 = 0
Settings	mass density [kg/m3]	refractive index
[1]	–	1.35733
[2]	781.99	–
